According to patent US20100035251A1, “BioMarkers for the Progression of Alzheimer's Disease” (priority 2006, published 2010):

Target: LRRK2 protein (SEQ ID NO:2) (Homo sapiens, UniProt Q5S007)
Assay: Drug Pull-Down experiments
Type: binding
Description: The pharmacological properties of the LRRK2 modulating agents can be evaluated, for example, in Drug Pull-Down experiments. The above-mentioned heterocyclic compounds can show activity in Drug Pull-Down experiments at concentrations below 20 μM.

Chain of LRRK2 protein (SEQ ID NO:2) (Q5S007 whole entry R50H/L212S): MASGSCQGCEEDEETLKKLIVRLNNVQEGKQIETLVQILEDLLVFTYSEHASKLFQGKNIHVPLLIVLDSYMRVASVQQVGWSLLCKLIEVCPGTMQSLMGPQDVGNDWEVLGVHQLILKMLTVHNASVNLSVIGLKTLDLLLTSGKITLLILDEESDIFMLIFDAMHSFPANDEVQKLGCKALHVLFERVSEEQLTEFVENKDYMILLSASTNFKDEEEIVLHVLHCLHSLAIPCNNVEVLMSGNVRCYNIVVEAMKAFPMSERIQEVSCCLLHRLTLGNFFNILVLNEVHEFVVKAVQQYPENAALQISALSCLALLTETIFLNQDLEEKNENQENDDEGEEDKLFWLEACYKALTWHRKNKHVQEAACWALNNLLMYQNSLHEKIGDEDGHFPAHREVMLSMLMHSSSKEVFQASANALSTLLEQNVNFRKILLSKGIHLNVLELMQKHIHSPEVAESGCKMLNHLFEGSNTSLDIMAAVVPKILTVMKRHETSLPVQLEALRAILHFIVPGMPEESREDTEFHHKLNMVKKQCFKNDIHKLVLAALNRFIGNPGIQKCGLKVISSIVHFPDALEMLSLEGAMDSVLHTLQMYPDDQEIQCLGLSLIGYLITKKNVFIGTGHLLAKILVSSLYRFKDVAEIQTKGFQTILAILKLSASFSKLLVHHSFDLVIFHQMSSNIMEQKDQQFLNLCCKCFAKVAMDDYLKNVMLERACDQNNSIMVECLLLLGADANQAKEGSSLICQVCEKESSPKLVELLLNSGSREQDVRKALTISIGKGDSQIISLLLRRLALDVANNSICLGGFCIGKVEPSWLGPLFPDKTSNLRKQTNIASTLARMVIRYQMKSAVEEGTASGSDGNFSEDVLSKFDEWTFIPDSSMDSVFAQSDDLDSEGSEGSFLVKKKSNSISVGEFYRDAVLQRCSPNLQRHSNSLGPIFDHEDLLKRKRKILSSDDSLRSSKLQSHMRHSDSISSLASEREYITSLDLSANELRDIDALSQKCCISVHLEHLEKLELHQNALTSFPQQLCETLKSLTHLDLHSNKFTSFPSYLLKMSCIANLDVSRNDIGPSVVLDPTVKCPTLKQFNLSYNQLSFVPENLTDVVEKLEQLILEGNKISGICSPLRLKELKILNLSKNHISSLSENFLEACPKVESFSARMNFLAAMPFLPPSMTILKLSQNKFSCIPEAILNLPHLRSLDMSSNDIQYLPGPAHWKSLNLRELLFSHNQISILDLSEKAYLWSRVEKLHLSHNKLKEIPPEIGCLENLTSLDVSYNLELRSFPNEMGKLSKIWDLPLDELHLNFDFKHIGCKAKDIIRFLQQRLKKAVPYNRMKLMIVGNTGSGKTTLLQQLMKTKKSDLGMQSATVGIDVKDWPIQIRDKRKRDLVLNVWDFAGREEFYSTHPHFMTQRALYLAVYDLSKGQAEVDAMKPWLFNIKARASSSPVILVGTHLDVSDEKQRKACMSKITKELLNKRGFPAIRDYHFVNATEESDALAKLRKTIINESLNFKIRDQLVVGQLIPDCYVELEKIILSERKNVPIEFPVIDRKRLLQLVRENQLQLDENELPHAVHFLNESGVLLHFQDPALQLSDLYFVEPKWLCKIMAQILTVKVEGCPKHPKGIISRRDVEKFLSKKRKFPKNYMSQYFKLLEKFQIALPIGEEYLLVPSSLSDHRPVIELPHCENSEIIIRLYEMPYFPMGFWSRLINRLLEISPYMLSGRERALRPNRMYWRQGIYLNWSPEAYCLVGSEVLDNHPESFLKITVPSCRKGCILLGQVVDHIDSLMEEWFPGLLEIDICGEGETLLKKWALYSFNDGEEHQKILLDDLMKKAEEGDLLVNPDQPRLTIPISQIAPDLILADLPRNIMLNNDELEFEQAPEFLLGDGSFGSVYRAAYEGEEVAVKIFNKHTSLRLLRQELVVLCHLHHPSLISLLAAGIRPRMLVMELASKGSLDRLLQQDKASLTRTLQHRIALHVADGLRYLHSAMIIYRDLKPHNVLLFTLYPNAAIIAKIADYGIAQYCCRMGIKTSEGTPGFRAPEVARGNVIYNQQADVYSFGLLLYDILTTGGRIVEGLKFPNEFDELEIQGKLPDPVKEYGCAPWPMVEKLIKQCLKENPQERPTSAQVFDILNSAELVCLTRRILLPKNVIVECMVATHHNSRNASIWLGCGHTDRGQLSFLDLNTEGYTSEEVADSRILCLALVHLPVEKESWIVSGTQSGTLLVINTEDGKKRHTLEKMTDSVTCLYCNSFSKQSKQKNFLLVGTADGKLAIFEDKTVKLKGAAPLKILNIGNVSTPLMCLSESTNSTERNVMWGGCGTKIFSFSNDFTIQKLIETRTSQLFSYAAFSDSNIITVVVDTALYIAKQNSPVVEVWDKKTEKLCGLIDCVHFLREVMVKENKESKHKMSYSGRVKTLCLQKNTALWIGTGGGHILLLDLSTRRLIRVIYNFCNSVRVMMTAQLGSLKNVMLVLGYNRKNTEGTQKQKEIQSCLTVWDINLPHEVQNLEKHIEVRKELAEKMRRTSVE

## Cc1[nH]c(/C=C2\C(=O)Nc3ccccc32)c(C)c1CCC(=O)O [Compound 12]
  IC50: ~1 µM
